This is an account of results in patent publication US20260265244A1, “HETEROCYCLIC COMPOUNDS AS STING ANTAGONISTS” (Boehringer Ingelheim International GmbH, priority 2022, published 2026).

For test [1], the target named is T1, cGAMP binding domain of wild-type (GRR) human STING, residues 155-341 (Homo sapiens, UniProt Q86WV6, H232R).
T1 construct: His-TEV-hSTING (WT); TEV protease cleavage site (N); made in house; host or cells: E. coli BL21 DE3
The test can be described thus: Increase of stability of STING protein against thermal denaturation, Differential Scanning Fluorimetry (DSF). The protocol: Dye fluorescence is quenched in aqueous environment and increases upon association of the dye with the hydrophobic parts of the unfolding protein. […] The inflection point of the curve represents the “melting” temperature of the protein (Tm) which is calculated numerically using the Boltzmann equation.
Method: The thermal stability of the STING protein was measured using a specific expression construct of the cGAMP binding domain of wild-type (GRR) human STING comprising residues 155-341 and a N-terminal 8×His-tag (SEQ ID NO: 3) in assay buffer containing 20 mM Tris, 150 mM NaCl at pH7.5.
The assay uses Hard-Shell® PCR Plates 384-Well CLR/WHT (Catalog #HSP3805, BIO-RAD), Microseal® ‘B’ Adhesive Seals for PCR Plates (Catalog #MSB-1001, BIO-RAD) and was run on a CFX384 Real-Time System (Bio-Rad).
A DMSO stock solution of SYPRO orange (SIGMA S5692-500UL) was prepared.
Compound stock solutions (10 mM in DMSO) were diluted 1:2 in DMSO to an intermediate compound concentration of 5 mM and then further diluted 1:40 in assay buffer resulting in a compound concentration of 125 μM and 2.5% DMSO.
Fluorescent dye stock solution (5000×SYPRO Orange) was then mixed with target protein and buffer to a concentration of 15 uM Protein and 25×SYPRO Orange. 2 ul of this protein-dye-mixture was added to 8 ul compound solution. Final volume was 10 uL. 3-6 well positions were used as negative control (protein with 2% DMSO). The plates were prepared for duplicate measurement and centrifuged for 2 min at 1000 g. In the measurement, 160 cycles of 0.5° C. were used (temperature ramp 15 s/cycle, 15° C. to 95° C.).
Final Assay concentrations for compound characterization were as follows: 100 uM compound, 3 uM target protein, 5×SYPRO Orange, 2% DMSO in 10 ul. All dispensing steps were performed using a HamiltonStar pipetting robot (Hamilton).
Dissociation curves were processed in Bio-Rad CFX Manager. Peak type was set to “negative”. Compound codes for screen were assigned in the plate layout.
Two replicates of TM measurements were averaged, and the standard deviation was calculated. In cases of SD>1.5° C. the measurement was repeated.
The melting point (Tm) obtained for STING protein alone was subtracted from T obtained for protein incubated with ligand to generate ΔTm values.
Protein production and purification: The protein used for the biophysical experiments was a recombinant human STING protein comprising its cytosolic ectodomain. A codon optimized DNA sequence (for expression in Escherichia coli) encoding amino acid residues 155 to 341 (Swiss Prot Q86WV6) of human STING (WT) was synthesized by GeneArt (Regensburg, Germany) and inserted into a pET17b E. coli expression vector. The protein construct encodes an N-terminal 8×His-tag (SEQ ID NO: 3) followed by tobacco etch virus protease (TEV) cleavage site and the above STING gene sequence. The resulting protein sequence for the used STING variant is listed below:
For expression of recombinant human STING above construct was transformed into E. coli BL21 DE3 strain and grown in shake flasks in LB-medium at 37° C. Expression was induced by addition of isopropyl β-D-1-thiogalactopyranoside to a final concentration of 1 mM and cultures shaken overnight. Cell pellets were centrifuged and stored at −70° C. until further use. Protein was purified by cell thawing in lysis buffer (20 mM TRIS-HCl, pH 8, 300 mM NaCl, 2 mM mercaptoethanol, 20 mM imidazole, Complete Protease Inhibitor (Roche) and DNase (Roche)), followed by metal affinity purification using Ni-NTA resins and elution buffer consisting of 20 mM TRIS-HCl, pH 8, 300 mM NaCl, 2 mM mercaptoethanol, 300 mM imidazole and size exclusion chromatography in running buffer (20 mM TRIS-HCl, pH 8, 100 mM NaCl, 2 mM DTT). The peak fraction was collected and concentrated to 2.5 mg/mL.
A general note: Differential scanning fluorimetry follows unfolding on heating by fluorescence.

Test [2] relates to STING inhibition in human whole blood (IFNα2α production). In words: Human whole blood assay (HWBA): cGAMP-stimulated IFNα2α production. The format is cell-based. The settings on record: Homo sapiens. The protocol: For the detection of STING inhibition in physiological environment human whole blood was stimulated by the cyclic dinucleotide cGAMP. Pathway activity was monitored by measuring the IFNα2α production.
Assay method: Compounds were delivered as 10 mM DMSO solution and serial diluted and transferred to the 96-well Cell culture Plate (Corning #3595), prefilled with 20 μl OptiMEM (Gibco #11058-021) in each well, using an Echo acoustic dispenser. Typically, 8 concentrations were used with the highest concentration at 10 μM in the final assay volume followed by ~1:5 dilution steps. DMSO concentration was set to 0.1% in the final assay volume. The 96 well assay plate contained 9 test compounds, a reference compound and DMSO in control wells.
Collection of human whole blood from 3 or more healthy donors (male or female, no medication for 7 days, exception contraceptive and thyroxine) as Na-citrate blood (e.g. 3.8% in Monovettes from Sarstedt) is conducted in parallel. Whole blood was kept at room temperature for a maximum of 3 hours after collection until use in the assay.
160 μl of the whole blood samples were transferred to each well of the 96-well assay plates filled with compound/OptiMEM. All assay plates are prepared as duplicates with blood from different donors. Blood plates were kept at room temperature for 60 minutes and continuous shaking with 450 rpm, covered with the lid, but not sealed.
A 10× cGAMP assay solution was diluted from a 2 mM stock solution in 1×HBSS immediately before use at room temperature. 20 μl of the 10× cGAMP/HBSS were added to all compound and all high control wells, whereas HBSS only was added to all low control wells.
After covering assay plates with aera seals and the lid, blood plates were kept at room temperature for 30 minutes and continuous shaking with 450 rpm, followed by an overnight incubation of 22 h at 37° C. in the incubator, without shaking.
For the detection of IFNα-2α in human plasma, the biotinylated capture antibody (Antibody set IFNA2, Meso Scale Diagnostics #B21VH-3, including coating and capture antibody) was diluted 1:17.5 in Diluent 100 (Meso Scale Diagnostics #R50AA-4, according to the manufacturer. U-Plex MSD GOLD 96-well Small Spot Streptavidin SECTOR Plates (Meso Scale Diagnostics #L45SA-5) were coated with 25 μl diluted capture antibody. Coated plates were incubated for 60 min at room temperature under continuous shaking at 700 rpm. MSD IFNα-2α plates were washed three times with 150 μl wash buffer (1×HBSS, 0.05% Tween).
After blocking the plates with 100 μl block solution/well (1×HBSS with 0.2% Tween, 2% BSA) for 60 min at room temperature and continuous shaking at 700 rpm, plates were emptied as dry as possible by dumping just before continuing with the human plasma. Whole Blood assay plates were centrifuged at 1600 rpm for 10 minutes. 25 μl of supernatant was transferred with a pipetting robotics from each whole blood plate to the corresponding IFNα-2α plate. Plates were sealed with microplate seals and kept at room temperature again under continuous shaking at 700 rpm for two hours. Next MSD IFNα-2α plates were washed three times with 150 μl wash buffer (1×HBSS, 0.05% Tween), before adding 25 μl MSD SULFO-TAG IFNα-2α Antibody solution (1:100 diluted in Diluent 3 (Meso Scale Diagnostics #R50AP-2) to each well of the plates. Afterwards plates were sealed with microplate seals and kept at room temperature again under continuous shaking at 700 rpm for two hours. Finally MSD IFNα-2α plates were washed three times with 150 μl wash buffer (1×HBSS, 0.05% Tween). 150 μl 2×Read buffer was added to each well and plates were immediately measured with the MSD Sector S600 Reader using the vendor barcode.
Data evaluation and calculation: For data evaluation and calculation, % control calculation of each well was based on the mean of high (cGAMP stimulated control) and mean of low (unstimulated control) controls by using the following formula: […]

In the next test the test system is STING. The settings on record: in vitro and in BLM-induced SSc mice; cited from earlier work.

T1 sequence (Q86WV6 with tags, fused parts or gaps H232R): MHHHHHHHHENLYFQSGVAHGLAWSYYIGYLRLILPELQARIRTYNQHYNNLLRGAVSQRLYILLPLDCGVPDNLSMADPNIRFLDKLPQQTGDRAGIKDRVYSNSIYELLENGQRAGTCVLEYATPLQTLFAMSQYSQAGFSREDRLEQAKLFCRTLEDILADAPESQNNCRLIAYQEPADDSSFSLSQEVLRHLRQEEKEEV

In turn, `Cc1c(C(C)C)c(-c2cccc3nn(C[C@H](O)c4ccccc4)cc23)nn1-c1cc2cn(C)nc2nc1OCCO` [Example 71, 2-{[5-(3-{2-[(2R)-2-hydroxy-2-phenylethyl]-2H-indazol-4-yl}-5-methyl-4-(propan-2-yl)-1H-pyrazol-1-yl)-2-methyl-2H-pyrazolo[3,4-b]pyridin-6-yl]oxy}ethan-1-ol] came in with a DSF in test [1] of 26 K. In test [2], this compound yielded an IC50 of 370 nM. In test [1], `COc1nc2nn(C)cc2cc1-n1nc(-c2cccc3nn(C[C@H](O)c4ccccc4)cc23)c(C(C)C)c1C` [Example 59, (1R)-2-[4-(1-{6-methoxy-2-methyl-2H-pyrazolo[3,4-b]pyridin-5-yl}-5-methyl-4-(propan-2-yl)-1H-pyrazol-3-yl)-2H-indazol-2-yl]-1-phenylethan-1-ol] displayed a DSF of 27 K. For the same compound, the concentration for half-maximal inhibition (IC50) in test [2] came out at 240 nM. Taken in the same sequence, the figures for `Cn1cc2cc(-c3nc(-c4cccc5nn(C[C@H](O)c6ccc(OCc7ccccc7)cc6)cc45)c(C4CC4)n3C)c(C3CC3)nc2n1` [Example 4, (1R)-1-[4-(benzyloxy)phenyl]-2-[4-(5-cyclopropyl-2-{6-cyclopropyl-2-methyl-2H-pyrazolo[3,4-b]pyridin-5-yl}-1-methyl-1H-imidazol-4-yl)-2H-indazol-2-yl]ethan-1-ol] were 27 K and 800 nM. In turn, `Cc1nc2nn(CP(C)(C)=O)cc2cc1-n1nc(-c2cccc3nn(C[C@H](O)c4ccccc4)cc23)c(C(C)C)c1C` [Example 77, (1R)-2-[4-(1-{2-[(dimethylphosphoryl)methyl]-6-methyl-2H-pyrazolo[3,4-b]pyridin-5-yl}-5-methyl-4-(propan-2-yl)-1H-pyrazol-3-yl)-2H-indazol-2-yl]-1-phenylethan-1-ol] had a DSF in test [1] of 27 K. The compound also had an IC50 in test [2] of 550 nM. As to `C=Cn1cc2cc(-c3nc(-c4cccc5nn(C[C@H](O)c6ccccc6)cc45)c(C4CC4)n3C)c(C3CC3)nc2n1` [Example 61, (1R)-2-[4-(5-cyclopropyl-2-{6-cyclopropyl-2-ethenyl-2H-pyrazolo[3,4-b]pyridin-5-yl}-1-methyl-1H-imidazol-4-yl)-2H-indazol-2-yl]-1-phenylethan-1-ol], in test [1], the DSF is 30 K. For the same compound, in test [2], half-maximal inhibition (IC50) required 270 nM. In turn, `Cc1nc2nn(CC3COCCO3)cc2cc1-n1nc(-c2cccc3nn(C[C@H](O)c4ccccc4)cc23)c(C(C)C)c1C` (stereo partly drawn) [Example 31, (1R)-2-[4-(1-{2-[(1,4-dioxan-2-yl)methyl]-6-methyl-2H-pyrazolo[3,4-b]pyridin-5-yl}-5-methyl-4-(propan-2-yl)-1H-pyrazol-3-yl)-2H-indazol-2-yl]-1-phenylethan-1-ol] displayed a DSF in test [1] of 27 K. This compound showed a concentration for half-maximal inhibition (IC50) in test [2] of 110 nM. For the compound `Cc1nc2nn(CCCN(C)C)cc2cc1-n1nc(-c2cccc3nn(C[C@H](O)c4ccccc4)cc23)c(C(C)C)c1C` [Example 43, (1R)-2-[4-(1-{2-[3-(dimethylamino)propyl]-6-methyl-2H-pyrazolo[3,4-b]pyridin-5-yl}-5-methyl-4-(propan-2-yl)-1H-pyrazol-3-yl)-2H-indazol-2-yl]-1-phenylethan-1-ol], in test [2], half-maximal inhibition (IC50) was put at 140 nM. With `CCc1ccc(NC(=O)Nc2c[nH]c3ccccc23)cc1` [Example H151], the fibrosis and vasculopathy entry in the test on STING was “ameliorated fibrosis and vasculopathy”. For `CCOc1nc2nn(C)cc2cc1-n1nc(-c2cccc3nn(C[C@H](O)c4ccccc4)cc23)c(C(C)C)c1C` [Example 5, (1R)-2-[4-(1-{6-ethoxy-2-methyl-2H-pyrazolo[3,4-b]pyridin-5-yl}-5-methyl-4-(propan-2-yl)-1H-pyrazol-3-yl)-2H-indazol-2-yl]-1-phenylethan-1-ol], in test [2], it took 61 nM to reach half-maximal inhibition (IC50). In turn, `Cn1c(-c2cc3cn(CCCN4CCOCC4)nc3nc2C2CC2)nc(-c2cccc3nn(C[C@H](O)c4ccccc4)cc23)c1C1CC1` [Example 11, (1R)-2-[4-(5-cyclopropyl-2-{6-cyclopropyl-2-[3-(morpholin-4-yl)propyl]-2H-pyrazolo[3,4-b]pyridin-5-yl}-1-methyl-1H-imidazol-4-yl)-2H-indazol-2-yl]-1-phenylethan-1-ol] registered a DSF in test [1] of 30 K. In addition, half-maximal inhibition in test [2] (IC50) was put at 70 nM. Taken in the same sequence, the figures for `COCCc1nc2nn(C)cc2cc1-n1nc(-c2cccc3nn(C[C@H](O)c4ccccc4)cc23)c(C(C)C)c1C` [Example 38, (1R)-2-(4-{1-[6-(2-methoxyethyl)-2-methyl-2H-pyrazolo[3,4-b]pyridin-5-yl]-5-methyl-4-(propan-2-yl)-1H-pyrazol-3-yl}-2H-indazol-2-yl)-1-phenylethan-1-ol] were 26 K and 130 nM.

With `Cc1nc2nn(CCC#N)cc2cc1-n1nc(-c2cccc3nn(C[C@H](O)c4ccccc4)cc23)c(C(C)C)c1C` [Example 99], the DSF in test [1] turned out to be 29 K. In test [2], the IC50 worked out at 35 nM.

In general, IC50 refers to the concentration at which inhibition is half-maximal. A high value points to weaker potency in that assay.
